Paper PMC5161641 (Nature, 2016)
Where a chain is given by its changes, count along the chain named.

What was measured:
[1] = target: T1, human P2X3 receptor (hP2X3-MFC) (Homo sapiens, UniProt P56373); assay: X-ray structure of soaked crystal; format: binding
T1 sequence (P56373 6-364): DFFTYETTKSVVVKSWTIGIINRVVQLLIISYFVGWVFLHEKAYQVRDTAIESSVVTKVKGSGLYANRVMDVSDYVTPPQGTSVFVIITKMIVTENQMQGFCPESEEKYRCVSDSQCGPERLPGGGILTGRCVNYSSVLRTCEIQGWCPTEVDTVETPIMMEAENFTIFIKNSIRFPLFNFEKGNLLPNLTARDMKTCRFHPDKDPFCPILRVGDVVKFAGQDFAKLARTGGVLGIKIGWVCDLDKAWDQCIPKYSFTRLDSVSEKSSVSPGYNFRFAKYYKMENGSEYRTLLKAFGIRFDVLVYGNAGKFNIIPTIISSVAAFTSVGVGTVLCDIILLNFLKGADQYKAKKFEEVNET

[2] = target: T2, human P2X3 receptor (hP2X3-MFCslow) (Homo sapiens, UniProt P56373, T13P/S15V/V16I); assay: SPA 3H-ATP saturation binding
T2 sequence (P56373 6-364 T13P/S15V/V16I): T1 sequence (P56373 6-364) with T8P, S10V, V11I

[3] = target: T1, human P2X3 receptor (hP2X3-MFC); assay: SPA 3H-ATP saturation binding

| SMILES | Ki [1] [nM] | Kd [2] [nM] | Kd [3] [nM] |
| --- | --- | --- | --- |
| CSc1nc(N)c2ncn([C@@H]3O[C@H](COP(=O)(O)OP(=O)(O)OP(=O)(O)O)[C@@H](O)[C@H]3O)c2n1 [2-methylthio-ATP, 2-(methylthio)adenosine 5′-triphosphate] | 1.9 ± 0.1 | – | – |
| Nc1ncnc2c1ncn2[C@@H]1O[C@H](COP(=O)(O)OP(=O)(O)OP(=O)(O)O)[C@@H](O)[C@H]1O [ATP] | – | 3.3 ± 0.3 | 2.8 ± 0.1 |
